Source: patent US11807693B2 (priority 2014, dated 2023)
Starred links: 1 amine or outer side, 2 acyl side, 3 side chain; linkers in the order of their positions; H or OH if unused. Non-standard residues stand in square brackets, D forms with d. Residues, ends and D or L forms follow the SMILES beside them. *: point of attachment. dBip = N[C@H](Cc1ccc(-c2ccccc2)cc1)C(=O)O; Oic = O=C(O)[C@@H]1C[C@@H]2CCCC[C@@H]2N1; Phe(4-Cl) = N[C@@H](Cc1ccc(Cl)cc1)C(=O)O; Phe(4-I) = N[C@@H](Cc1ccc(I)cc1)C(=O)O; γGlu = O=C(O)[C@H](CCC(=O)[*:2])N[*:1]; HOOC(CH2)8CO = O=C(O)CCCCCCCCC(=O)*; NMeR = CN[C@@H](CCCNC(=N)N)C(=O)O; Palmitoyl = CCCCCCCCCCCCCCCC(=O)*; Tridecanoyl = CCCCCCCCCCCCC(=O)*; hArg = N=C(N)NCCCC[C@H](N)C(=O)O; Cha = N[C@@H](CC1CCCCC1)C(=O)O; NMeL = CN[C@@H](CC(C)C)C(=O)O; αMeP = C[C@@]1(C(=O)O)CCCN1; β3hP = O=C(O)C[C@@H]1CCCN1; Pip = O=C(O)[C@@H]1CCCCN1; Nle = CCCC[C@H](N)C(=O)O; AEEA = NCCOCCOCC(=O)O; Aib = CC(C)(N)C(=O)O

target: T1, human APJ receptor (Homo sapiens, UniProt P35414); experiment: [35S] GTPγS assay, human APJ receptor; type: biochemical; conditions: not given
T1 construct: expressed in transfected cells
T1 sequence (P35414 1-380): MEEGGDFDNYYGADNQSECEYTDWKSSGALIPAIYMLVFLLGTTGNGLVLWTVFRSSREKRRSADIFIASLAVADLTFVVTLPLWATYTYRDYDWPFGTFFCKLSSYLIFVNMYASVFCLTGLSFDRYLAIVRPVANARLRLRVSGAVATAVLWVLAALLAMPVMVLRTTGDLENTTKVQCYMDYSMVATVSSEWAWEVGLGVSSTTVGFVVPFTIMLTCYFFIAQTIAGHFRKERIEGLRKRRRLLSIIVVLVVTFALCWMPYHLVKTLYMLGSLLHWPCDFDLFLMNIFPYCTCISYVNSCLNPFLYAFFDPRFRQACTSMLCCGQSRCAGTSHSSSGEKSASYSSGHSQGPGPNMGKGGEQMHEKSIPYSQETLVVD

EC50 | Structure (SMILES)
0.171 nM | CCCC[C@H](NC(=O)[C@@H]1C[C@@H]2CCCC[C@@H]2N1C(=O)CNC(=O)[C@H](CCCCN)NC(=O)[C@H](Cc1c[nH]cn1)NC(=O)[C@H](CO)NC(=O)[C@H](CC1CCCCC1)NC(=O)[C@H](CCCCNC(=N)N)NC(=O)[C@@H]1CCCN1C(=O)[C@H](CCCNC(=N)N)NC(=O)[C@H](CCC(N)=O)NC(=O)[C@H](CCCNC(=N)N)NC(C)=O)C(=O)N1CCC[C@H]1C(=O)N[C@@H](Cc1ccc(Cl)cc1)C(=O)O [compound 17] (Ac-RQRP[hArg][Cha]SHKG[Oic][Nle]P[Phe(4-Cl)]-OH)
1.52 nM | CC(=O)N[C@@H](CCCCNC(=N)N)C(=O)N[C@@H](CCCCNC(=N)N)C(=O)N[C@@H](CCC(N)=O)C(=O)N[C@H](CCCNC(=N)N)C(=O)N1CCC[C@H]1C(=O)N(C)[C@@H](CCCNC(=N)N)C(=O)N[C@@H](CC1CCCCC1)C(=O)N[C@@H](CO)C(=O)N[C@@H](Cc1c[nH]cn1)C(=O)N[C@@H](CCCCN)C(=O)NCC(=O)N1[C@H](C(=O)N[C@@H](Cc2ccc(I)cc2)C(=O)N2CCC[C@H]2C(=O)N[C@H](Cc2ccc(-c3ccccc3)cc2)C(=O)O)C[C@@H]2CCCC[C@@H]21 [compound 22] (Ac-[hArg][hArg]Q[dR]P[NMeR][Cha]SHKG[Oic][Phe(4-I)]P[dBip]-OH)

same assay, conditions: Table 16

EC50 | Structure (SMILES)
2.77 nM | CCCCCCCCCCCCC(=O)N[C@@H](CCC(=O)NCCOCCOCC(=O)NCCOCCOCC(=O)N[C@@H](CCCNC(=N)N)C(=O)N[C@@H](CCC(N)=O)C(=O)N[C@@H](CCCNC(=N)N)C(=O)N1CCC[C@H]1C(=O)N[C@@H](CCCCN)C(=O)N[C@@H](CC1CCCCC1)C(=O)N[C@@H](C)C(=O)N[C@@H](C)C(=O)N[C@@H](CCCC)C(=O)NCC(=O)N1[C@H](C(=O)N[C@@H](CCCC)C(=O)N2CCC[C@H]2C(=O)N[C@@H](Cc2ccc(Cl)cc2)C(=O)O)C[C@@H]2CCCC[C@@H]21)C(=O)O [compound 346] ({Tridecanoyl-γGlu-AEEA-AEEA}-RQRPK[Cha]AA[Nle]G[Oic][Nle]P[Phe(4-Cl)]-OH)
0.0768 nM | CCCCCCCCCCCCC(=O)N[C@@H](CCC(=O)NCCOCCOCC(=O)NCCOCCOCC(=O)N[C@@H](CCC(N)=O)C(=O)N[C@@H](CCCCNC(=N)N)C(=O)N1CCC[C@H]1C(=O)N(C)[C@@H](CCCNC(=N)N)C(=O)N[C@@H](CC1CCCCC1)C(=O)N[C@@H](CO)C(=O)N[C@@H](Cc1c[nH]cn1)C(=O)N[C@@H](CCCCN)C(=O)NCC(=O)N1CCC[C@H]1C(=O)N[C@@H](CCCC)C(=O)N1CCC[C@H]1C(=O)N[C@@H](Cc1ccc(Cl)cc1)C(=O)O)C(=O)O [compound 408] ({Tridecanoyl-γGlu-AEEA-AEEA}-Q[hArg]P[NMeR][Cha]SHKGP[Nle]P[Phe(4-Cl)]-OH)
1 nM | CCCCCCCCCCCCC(=O)N[C@@H](CCC(=O)NCCOCCOCC(=O)NCCOCCOCC(=O)N[C@@H](CCC(N)=O)C(=O)N[C@@H](CCCNC(=N)N)C(=O)N1CCC[C@H]1C(=O)N(C)[C@@H](CCCNC(=N)N)C(=O)N[C@@H](CC1CCCCC1)C(=O)N[C@@H](CO)C(=O)N[C@@H](Cc1c[nH]cn1)C(=O)N[C@@H](CCCCN)C(=O)NCC(=O)N1[C@H](C(=O)N[C@@H](CCCC)C(=O)N[C@@H](Cc2ccc(Cl)cc2)C(=O)O)C[C@@H]2CCCC[C@@H]21)C(=O)O [compound 409] ({Tridecanoyl-γGlu-AEEA-AEEA}-QRP[NMeR][Cha]SHKG[Oic][Nle][Phe(4-Cl)]-OH)
53.1 nM | CCCCCCCCCCCCC(=O)N[C@@H](CCC(=O)NCCOCCOCC(=O)NCCOCCOCC(=O)N[C@H](CCC(N)=O)C(=O)N[C@@H](CCC(=O)O)C(=O)N1CCC[C@H]1C(=O)N(C)[C@@H](CCCNC(=N)N)C(=O)N[C@@H](CC1CCCCC1)C(=O)N[C@@H](CO)C(=O)N[C@@H](Cc1c[nH]cn1)C(=O)N[C@@H](CCCCN)C(=O)NCC(=O)N1[C@H](C(=O)N[C@@H](CCCC)C(=O)NC(C)(C)C(=O)N[C@@H](Cc2ccc(Cl)cc2)C(=O)O)C[C@@H]2CCCC[C@@H]21)C(=O)O [compound 524] ({Tridecanoyl-γGlu-AEEA-AEEA}-[dQ]EP[NMeR][Cha]SHKG[Oic][Nle][Aib][Phe(4-Cl)]-OH)

same assay, conditions: human APJ receptor

EC50 | Structure (SMILES)
0.0526 nM | CCCCCCCCCCCCC(=O)N[C@@H](CCC(=O)NCCOCCOCC(=O)NCCOCCOCC(=O)N[C@@H](CC(N)=O)CC(=O)N[C@@H](CCCNC(=N)N)C(=O)N1CCC[C@H]1C(=O)N(C)[C@@H](CCCNC(=N)N)C(=O)N[C@@H](CC(C)C)C(=O)N[C@@H](CO)C(=O)N[C@@H](Cc1c[nH]cn1)C(=O)N[C@@H](CCCCN)C(=O)NCC(=O)N1CCC[C@H]1C(=O)N[C@@H](CCCC)C(=O)N1CCC[C@H]1C(=O)N[C@@H](Cc1ccc(Cl)cc1)C(=O)O)C(=O)O [compound 420]
1.4 nM | CCCCCCCCCCCCCCCC(=O)N[C@@H](CCC(=O)NCCOCCOCC(=O)NCCOCCOCC(=O)N[C@H](CCC(N)=O)C(=O)N[C@@H](CCCNC(=N)N)C(=O)N1CCC[C@H]1C(=O)N(C)[C@@H](CCCNC(=N)N)C(=O)N[C@@H](CC1CCCCC1)C(=O)N[C@@H](CO)C(=O)N[C@@H](Cc1c[nH]cn1)C(=O)N[C@@H](CCCCN)C(=O)NCC(=O)N1CCCC[C@H]1C(=O)NC(C)(C)C(=O)N[C@@H](Cc1ccc(Cl)cc1)C(=O)O)C(=O)O [compound 581] ({Palmitoyl-γGlu-AEEA-AEEA}-[dQ]RP[NMeR][Cha]SHKG[Pip][Aib][Phe(4-Cl)]-OH)
38.5 nM | CC(C)C[C@@H](C(=O)N[C@@H](CO)C(=O)N[C@@H](Cc1c[nH]cn1)C(=O)N[C@@H](CCCCN)C(=O)NCC(=O)N1[C@H](C(=O)N[C@@H](Cc2ccc(I)cc2)C(=O)N2CCC[C@H]2C(=O)N[C@H](Cc2ccc(-c3ccccc3)cc2)C(=O)O)C[C@@H]2CCCC[C@@H]21)N(C)C(=O)[C@@H](CCCNC(=N)N)NC(=O)[C@@H]1CCCN1C(=O)[C@H](CCCCNC(=N)N)NC(=O)[C@H](CCC(N)=O)NC(=O)COCCOCCNC(=O)COCCOCCNC(=O)CC[C@H](NC(=O)CCCCCCCCC(=O)O)C(=O)O [compound 288] ({HOOC(CH2)8CO-γGlu-AEEA-AEEA}-Q[hArg]P[dR][NMeL]SHKG[Oic][Phe(4-I)]P[dBip]-OH)
1.66 nM | CCCCCCCCCCCCCCCC(=O)N[C@@H](CCC(=O)NCCOCCOCC(=O)NCCOCCOCC(=O)N[C@H](CCC(N)=O)C(=O)N[C@@H](CCCNC(=N)N)C(=O)N1CCC[C@H]1C(=O)N(C)[C@@H](CCCNC(=N)N)C(=O)N[C@@H](CC1CCCCC1)C(=O)N[C@@H](CO)C(=O)N[C@@H](Cc1c[nH]cn1)C(=O)N[C@@H](CCCCN)C(=O)NCC(=O)N1CCC[C@H]1CC(=O)N[C@@H](CCCC)C(=O)N[C@@H](Cc1ccc(Cl)cc1)C(=O)O)C(=O)O [compound 613] ({Palmitoyl-γGlu-AEEA-AEEA}-[dQ]RP[NMeR][Cha]SHKG[β3hP][Nle][Phe(4-Cl)]-OH)
0.229 nM | CCCC[C@H](NC(=O)[C@]1(C)CCCN1C(=O)CNC(=O)[C@H](CCCCN)NC(=O)[C@H](Cc1c[nH]cn1)NC(=O)[C@H](CO)NC(=O)[C@H](CC1CCCCC1)NC(=O)[C@H](CCCNC(=N)N)N(C)C(=O)[C@@H]1CCCN1C(=O)[C@H](CCCNC(=N)N)NC(=O)[C@@H](CCC(N)=O)NC(C)=O)C(=O)NC(C)(C)C(=O)N[C@@H](Cc1ccc(Cl)cc1)C(=O)O [compound 93] (Ac-[dQ]RP[NMeR][Cha]SHKG[αMeP][Nle][Aib][Phe(4-Cl)]-OH)
